Where “and” joins values, the source holds several entries; their conditions need not be identical. Equal values may be shown once.
Legend:
[1] = Pharmacokinetic evaluation in male CD2F1 mice; type: in vivo, mouse
Protocol: To determine the pharmacokinetics of 2-OMe antimycin A1 in male CD2F1 mice, groups of three were dosed either intravenously (tail vein) or intraperitoneally with 2-OMe antimycin A1 (20 mg/kg) in a vehicle of Cremaphor (5%) and ethanol (5%) in 0.9% saline. For both dosing routes, the volume administered was 5 ml/kg body weight. At various times, samples were collected by cardiac puncture into tubes containing NaF/EDTA (dry powders).
Pharmacokinetic values were derived with WinNonlin® software (Mountain View, Calif.).

[2] = system: mitochondria from TABX1A cells; experiment: Swelling of isolated mitochondria (absorbance at 540 nm); design: species or system murine; settings: even at much higher concentrations
AML-12.Bcl-xL cells = experiment: Sensitivity of non-tumorigenic liver cells to antimycin A; type: cell-based, mouse; settings: vs AML-12 control transfectants
Description: The effects of BCl-xL over-expression on non-tumorigenic cells was also examined. […] Briefly, AML-12 cells were transfected as described above with pSFFV.Bcl-xL(sense) and pSFFV.neo. AML-12-pSFFV. Bcl-xL(sense) cells expressed approximately 3 to 4 fold higher BCl-xL protein levels than did AML-12 cells transfected with the control plasmid, pSFFV.neo, when assayed by Western blot analysis.

[3] = system: control mitochondria (TABX1A cells); experiment: Rhodamine 123 retention assay; design: species or system murine
Protocol: Rh-123 is a cationic lipid-soluble fluorescent dye that accumulates in mitochondria in proportion to the mitochondrial membrane potential. Mitochondria were isolated from TABX2S cells (over-expressing Bcl-xL) and from control cells, prepared as described in Example 2. The isolated mitochondria were loaded with Rh-123 by incubating with 10 μM Rh-123 for 30 minutes, washed and resuspended in buffer. […] Less than 40% of Rh-123 was retained in antimycin A-treated TABX2S mitochondria, compared with greater than 80% retained in control mitochondria.
In contrast, the control cells, which express BCl-xL at physiological levels, were resistant to BH3 peptide-induced membrane depolarization.

TABX2S cells = experiment: Cellular respiration by oximetry; type: cell-based, murine; settings: higher concentrations (above 1 μg/ml)
Protocol: (§1) Briefly, TABX2S cells (over-expressing Bcl-xL) and control cells (TAMH.neo) were suspended in air-equilibrated complete medium at a density of 3 million cells per milliliter and placed in a thermostatted electrode chamber at 37° C.

TAMH.neo control cells = experiment: Cellular respiration by oximetry; type: cell-based, murine; settings: higher concentrations (above 1 μg/ml)
Protocol: as §1

RPMI-8226 cells = experiment: Mitochondrial membrane potential (safranin O); type: cell-based, human
Protocol: RPMI-8226 cells (2×10^7) were resuspended in buffer containing 130 mM KCl, 5 mM malate, 5 mM glutamate, 2 mM KPO4, 5 mM HEPES, pH 7.0 with 5 μM safranin O dye, in a stirred cuvette at 28° C. Fluorescence was measured at 495 nm excitation, 586 nm emission on a RF-5301PC spectrofluorophotometer (Shimadzu, Japan). Safranin O fluorescence was quenched following addition of 0.0025% digitonin as the dye accumulates in active mitochondria (Fiskum et al., Methods Enzymol. 322:222-234, 2000). Depolarization of the mitochondrial inner membrane caused a shift of safranin O localization from mitochondria to cytoplasm, evident as increased fluorescence.

[4] = molecular target: T1, recombinant human Bcl-2ΔC22 (Homo sapiens, UniProt P10415); experiment: Antimycin A3 fluorescence binding and competition assay; settings: 2 μM each, Bcl-2 3 μM, 7.5 minutes, 22.5° C.
T1 construct: poly-His (N); made in house
T1 sequence (P10415 1-217 limits assumed, stated change not applied): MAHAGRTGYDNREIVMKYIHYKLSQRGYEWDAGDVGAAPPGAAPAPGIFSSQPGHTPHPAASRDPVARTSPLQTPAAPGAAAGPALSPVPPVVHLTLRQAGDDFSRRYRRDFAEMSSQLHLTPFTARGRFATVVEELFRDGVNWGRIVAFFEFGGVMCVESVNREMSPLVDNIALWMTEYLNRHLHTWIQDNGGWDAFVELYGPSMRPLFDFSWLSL
Protocol: In this assay, 0 to 5 μM antimycin A3 (Sigma Chemical Co., St. Louis, Mo.) was added to a physiological buffer (50 mM Tris-HCl pH 8.0, 0.2 M NaCl, 2 mM EDTA, 0.5% v/v glycerol) containing recombinant Bcl-2 or BCl-xL protein under conditions that permitted antimycin A3 to bind to the BH3-binding domain of Bcl-2 or BCl-xL (22.5° C. on a Hitachi F-2500 fluorescence spectrofluorimeter equipped with a thermostatted cell holder). […] The excitation wavelength was 335 nm, and the maximum emission wavelength for antimycin A3 was 428 nm with a slit width of 10 nm. The samples were mixed in a quartz cuvette and checked for inner filter effect over the concentration range of antimycin A3 used for this study. Blanks containing antimycin A3 at the same concentration as the experimental samples were used as controls in all measurements and necessary background corrections were made.
Recombinant human Bcl-2ΔC22 (a recombinant human Bcl-2 with a delection of 22 amino acid residue membrane anchor sequence from the carboxyl end) and mouse Bcl-xLΔC20 (a recombinant murine BCl-xL with a delection of the 20 amino acid residue membrane anchor sequence from the carboxyl end) fused with poly-His at the N-terminus were chromatographically purified to homogeneity. The concentrations of antimycin A3 and stock solutions of recombinant proteins were quantitated using an extinction coefficient of 7.24/mM/cm at 320 nm and by Bradford assay, respectively. The stoichiometric ratio of antimycin A3 and Bcl-2 producing the maximal change in antimycin A3 fluorescence was determined with incremental addition of antimycin A3 to a 1.98 μM solution of recombinant Bcl-2 in a volume of 2.1 milliliters. […] For peptide displacement experiments, a solution of 2 μM antimycin A3 and 3 μM Bcl-2 was allowed to reach binding equilibrium at 4° C. prior to fluorescence measurements. Native peptide corresponding to the BH3 domain of Bak (72-[…]87 (SEQ ID NO:1)) or a mutant peptide with a single amino acid change (Leu78Ala-BH3) was added to the solution and the fluorescence measurements were repeated. […]

CCCCCC[C@H]1C(=O)O[C@H](C)[C@H](NC(=O)c2cccc(NC=O)c2OC)C(=O)O[C@@H](C)[C@@H]1OC(=O)CC(C)C [2-OMeA1, 2-methoxy antimycin A1]
AUC ([1]; Intraperitoneal dose 20 mg/kg): 2410 ng·h/mL
Cmax ([1]; Intraperitoneal dose 20 mg/kg): 483 ng/mL
MRT ([1]; Intraperitoneal dose 20 mg/kg): 474 min
T1/2 ([1]; Intraperitoneal dose 20 mg/kg): 183 min
AUC ([1]; Intravenous dose 20 mg/kg): 3720 ng·h/mL
Cmax ([1]; Intravenous dose 20 mg/kg): 8000 ng/mL
MRT ([1]; Intravenous dose 20 mg/kg): 27.6 min
T1/2 ([1]; Intravenous dose 20 mg/kg, 20 mg/kg): 19 min and 19.2 min
plasma concentration at 24 hr after dosing ([1]; intraperitoneal 20 mg/kg): 18 ng/mL
time of maximum plasma level ([1]; intraperitoneal 20 mg/kg): 30 min
plasma concentration at 30 min after dosing ([1]; intravenous 20 mg/kg): 1040 ng/mL
plasma concentration at 30 min as share of that at 5 min ([1]; intravenous 20 mg/kg): about 15%
plasma concentration at 24 hr after dosing ([1]; intravenous 20 mg/kg): 15 ng/mL

antimycin A
mitochondrial swelling [2]: did not exhibit similar permeability changes and swelling
sensitivity to antimycin A (AML-12.Bcl-xL cells): increased sensitivity
Rh123 dye leakage ([3]; BH3 peptide 3.5 μM): minimally affected
Rh-123 retained ([3]; five minutes after adding): greater than 80%
basal oxygen consumption maintained (TABX2S cells): about 20%
oxygen consumption (TAMH.neo control cells): almost completely inhibited

2-methoxy antimycin A [2-OMeA]
acute changes in mitochondrial membrane potential (RPMI-8226 cells): No acute changes

CCCC[C@H]1C(=O)OC(C)[C@H](NC(=O)c2cccc(NC=O)c2OC)C(=O)O[C@@H](C)C1OC(=O)CC(C)C (stereo partly drawn) [2-OMeA3, Antimycin A3 methyl ether]
competition with antimycin A3 for Bcl-2 [4]: competition for the antimycin A3 binding site
